Source: PubChem BioAssay (NCI)
Where “and” joins values, the source holds several entries; their conditions need not be identical. Equal values may be shown once.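 Tested at 5 concentrations; 48 h exposure; 96-well plates; endpoints linearly interpolated, else capped at highest concentration. Abbreviation: GI50, concentration required for 50% inhibition of growth. TGI: total growth inhibition.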

Test system: NCI/ADR-RES ovarian
Assay: NCI anticancer screen, dose series, 48 h

Row | SMILES | GI50 [µM] | TGI [µM]
1 | CC(=O)N[C@@H](Cc1ccc(OP(=O)(O)O)cc1)C(=O)N[C@H]1CCC(=O)N2CCC[C@@H](C(=O)Nc3cccc4ccccc34)N2C1=O | > 25 | > 25

Test system: OVCAR-5 ovarian
Assay: NCI anticancer screen, dose series, 48 h

Row | SMILES | TGI [µM] | GI50 [µM]
2 | Nc1nc2[nH]cc(CCc3ccc(C(=O)N[C@@H](CCC(=O)O)C(=O)O)cc3)c2c(=O)[nH]1 | > 100 | –
3 | Fc1cc(-c2nnc3n2N=C(c2ccc(Cl)cc2)CS3)c(Cl)cc1Cl | 32.7 | 15.5
4 | COC1=CC(=O)C(C2(OC(C)C)OC(=O)C(Cl)=C2Cl)=CC1=O (stereo not given) | > 100 | –
5 | CCC(C)SC1SCC2C(=O)N(C)C3(CC3C)C(=O)OCC(NC(=O)c3nc4ccccc4cc3O)C(=O)NC(C)C(=O)N(C)C1C(=O)N(C)C1(CC1C)C(=O)OCC(NC(=O)c1nc3ccccc3cc1O)C(=O)NC(C)C(=O)N2C (stereo not given) | 0.00256 | –
6 | CN1CCN(C(=O)COc2ccc(C34CC5CC(CC(C5)C3)C4)cc2)CC1 | 44.6 | 17.6
7 | COc1ccccc1NC(=O)c1cc2cc(Br)ccc2cc1O | 12.9 | 3.48
8 | O=C(Nc1nn2c(-c3cc(C(F)(F)F)cc(C(F)(F)F)c3)nnc2s1)C1CCCC1 | > 100 | 2.63
9 | COC(=O)[C@]12CC[C@@H](C)[C@H](C)[C@@H]1C1=CC[C@@H]3[C@@]4(C)C[C@@H](O)[C@H](O)[C@@](C)(CO)[C@@H]4[C@H](O)C[C@@]3(C)[C@]1(C)CC2 | 36.4 | 17.9
10 | COCCn1cc(-c2nc(-c3cc4cccnc4[nH]3)cs2)c2cc(OC)ccc21 | > 96.4 | 0.524
11 | O=[N+]([O-])c1cc([N+](=O)[O-])c(C(F)(F)F)cc1NN=C(c1ccc(O)cc1)c1ccc(O)cc1 | 50 | 11
12 | NCCNCCNCCN | > 100 | > 100
13 | c1ccc(Nc2ncc(-c3ccccc3)o2)cc1 | > 25 | > 25
14 | COc1ccc(C(c2cc(OC)c(OC)c(OC)c2)n2cncn2)cc1O (stereo not given) | > 100 | 1.99
15 | COc1c2ccccc2c(OC)c2[nH]c(=O)ccc12 | > 85.4 | 8.02
16 | O=C(O)C(Cl)Cl | > 10000 | > 10000
17 | NC(=S)N/N=C\c1nccc2c(C(F)(F)F)cccc12 | 27.6 | 0.445
18 | CC(=O)N[C@@H](Cc1ccc(OP(=O)(O)O)cc1)C(=O)N[C@H]1CCC(=O)N2CCC[C@@H](C(=O)Nc3cccc4ccccc34)N2C1=O | > 25 | > 25

Test system: SK-MEL-2 melanoma
Assay: NCI anticancer screen, dose series, 48 h

Row | SMILES | TGI [µM] | GI50
19 | Nc1nc2[nH]cc(CCc3ccc(C(=O)N[C@@H](CCC(=O)O)C(=O)O)cc3)c2c(=O)[nH]1 | > 100 | –
20 | Fc1cc(-c2nnc3n2N=C(c2ccc(Cl)cc2)CS3)c(Cl)cc1Cl | > 57.8 | 27 µM
21 | COC1=CC(=O)C(C2(OC(C)C)OC(=O)C(Cl)=C2Cl)=CC1=O (stereo not given) | 98.8 | –
22 | CCC(C)SC1SCC2C(=O)N(C)C3(CC3C)C(=O)OCC(NC(=O)c3nc4ccccc4cc3O)C(=O)NC(C)C(=O)N(C)C1C(=O)N(C)C1(CC1C)C(=O)OCC(NC(=O)c1nc3ccccc3cc1O)C(=O)NC(C)C(=O)N2C (stereo not given) | 0.000304 | –
23 | CN1CCN(C(=O)COc2ccc(C34CC5CC(CC(C5)C3)C4)cc2)CC1 | 30.4 | 15.5 µM
24 | COc1ccccc1NC(=O)c1cc2cc(Br)ccc2cc1O | 5.51 | 2.03 µM
25 | O=C(Nc1nn2c(-c3cc(C(F)(F)F)cc(C(F)(F)F)c3)nnc2s1)C1CCCC1 | 2.4 | 0.529 µM
26 | COC(=O)[C@]12CC[C@@H](C)[C@H](C)[C@@H]1C1=CC[C@@H]3[C@@]4(C)C[C@@H](O)[C@H](O)[C@@](C)(CO)[C@@H]4[C@H](O)C[C@@]3(C)[C@]1(C)CC2 | 48.3 | 22.6 µM
27 | COCCn1cc(-c2nc(-c3cc4cccnc4[nH]3)cs2)c2cc(OC)ccc21 | 12.8 | 3.05 µM
28 | O=[N+]([O-])c1cc([N+](=O)[O-])c(C(F)(F)F)cc1NN=C(c1ccc(O)cc1)c1ccc(O)cc1 | 5.99 | 2.56 µM
29 | NCCNCCNCCN | > 100 | > 100 µM
30 | c1ccc(Nc2ncc(-c3ccccc3)o2)cc1 | > 25 | > 25 µM
31 | COc1ccc(C(c2cc(OC)c(OC)c(OC)c2)n2cncn2)cc1O (stereo not given) | > 100 | 0.361 µM
32 | COc1c2ccccc2c(OC)c2[nH]c(=O)ccc12 | > 75.8 | 4.92 µM
33 | O=C(O)C(Cl)Cl | > 10000 | 8200 µM and > 10000 µM
34 | NC(=S)N/N=C\c1nccc2c(C(F)(F)F)cccc12 | 8.34 | 0.461 µM
35 | CC(=O)N[C@@H](Cc1ccc(OP(=O)(O)O)cc1)C(=O)N[C@H]1CCC(=O)N2CCC[C@@H](C(=O)Nc3cccc4ccccc34)N2C1=O | > 25 | > 25 µM

Test system: SN12C renal
Assay: NCI anticancer screen, dose series, 48 h

Row | SMILES | GI50 [µM] | TGI [µM]
36 | Nc1nc2[nH]cc(CCc3ccc(C(=O)N[C@@H](CCC(=O)O)C(=O)O)cc3)c2c(=O)[nH]1 | 0.737 | > 100
37 | Fc1cc(-c2nnc3n2N=C(c2ccc(Cl)cc2)CS3)c(Cl)cc1Cl | 3.85 | 16.8
38 | COC1=CC(=O)C(C2(OC(C)C)OC(=O)C(Cl)=C2Cl)=CC1=O (stereo not given) | – | > 100
39 | CCC(C)SC1SCC2C(=O)N(C)C3(CC3C)C(=O)OCC(NC(=O)c3nc4ccccc4cc3O)C(=O)NC(C)C(=O)N(C)C1C(=O)N(C)C1(CC1C)C(=O)OCC(NC(=O)c1nc3ccccc3cc1O)C(=O)NC(C)C(=O)N2C (stereo not given) | – | 9.55
40 | CN1CCN(C(=O)COc2ccc(C34CC5CC(CC(C5)C3)C4)cc2)CC1 | 12.6 | 26.1
41 | COc1ccccc1NC(=O)c1cc2cc(Br)ccc2cc1O | 2.73 | 9.64
42 | O=C(Nc1nn2c(-c3cc(C(F)(F)F)cc(C(F)(F)F)c3)nnc2s1)C1CCCC1 | 0.454 | > 36.7
43 | COC(=O)[C@]12CC[C@@H](C)[C@H](C)[C@@H]1C1=CC[C@@H]3[C@@]4(C)C[C@@H](O)[C@H](O)[C@@](C)(CO)[C@@H]4[C@H](O)C[C@@]3(C)[C@]1(C)CC2 | 14.5 | 30.6
44 | COCCn1cc(-c2nc(-c3cc4cccnc4[nH]3)cs2)c2cc(OC)ccc21 | 4.64 | > 100
